According to patent publication US20250017938A1, “COMBINATION THERAPIES OF FASN INHIBITORS WITH THYROID HORMONE RECEPTOR AGONISTS” (Sagimet Biosciences Inc., priority 2023, published 2025):
Entries after “also recorded” stand apart in the source; their conditions may differ.

Tests used:
Assay type in all cases: cell-based
[1] = system: 3D InSight Human Liver Microtissues (NASH condition); assay: 3D InSight Liver NASH model, intratissue triglyceride content (10 days)
Experimental: […]. InSphero's 10-day NASH treatment scheme was applied with compound dosing at days 0, 3, 5 and 7 of treatment. […]. At day 5 of treatment, secreted cytokine levels were measured (LUMINEX™), at days 7 and 10 released procollagen 1 was quantified and at day 10 of treatment intratissue triglyceride content was determined. The release of lactate dehydrogenase (LDH) into culture supernatant was measured at days 3, 5, 7 and 10, in order to detect possible cytotoxicity caused by the treatments. After first data evaluation, released procollagen 3 was measured in supernatants of selected day 10 samples. […]
Cells were dosed on days 0, 3, 5 and […]. Experimental readout measurements comprised collection and freezing of supernatants for LDH measurement on days 3, 5, 7 and 10. Measurement of LDH released into supernatant was analyzed using an LDH-Glo™ Cytotoxicity
Assay (Promega). Measurement of intratissue triglyceride (TG) content after 10 days of treatment was analyzed using a Triglyceride-Glo™ Assay (Promega). […] Measurement of IL-6, IL-8, IP-10, MCP-1, MIP-1α and TNF-α content was analyzed using Magnetic Luminex® Performance Assay, Human XL Cytokine Discovery Base Kit (R&D systems).
. Total TG content in MTs at day 10 of treatment was measured with Triglyceride-Glo™ Assay (Promega), according to InSphero AG protocol. […]

[2] = system: primary isolated human stellate cells (HSC); assay: Primary human hepatic stellate cells stimulated with TGF-β1, total collagen (in vitro fibrosis study)
Experimental: Primary isolated human stellate cells (HSC) were investigated in the study. The cells were maintained under standard culture conditions and in established culture medium.
Study Model: Viability screening and in vitro fibrosis study, 24 well plate format, 4 day stimulation with recombinant human TGF-β1. In this study, 2.5 and 10 ng/ml TGF-β1 were used.
Primary HSCs were seeded on t=day-1 and cultured in 24 well plates for 24 hours. […] Cells were incubated for an additional 96 hours (t=day 4). Conditioned medium samples were collected for expression analysis of secreted proteins. All wells were used for an alamarBlue assay to assess cell viability/metabolic activity. A separate plate was used at t=day 0 as reference for the alamarBlue assay. Next, the cell-matrix fraction was collected for measurement of total collagen and cell protein levels.
Both test compounds were dissolved in DMSO. Working concentrations were prepared from a stock concentration that is 1000-fold that of the highest working concentration. All controls were incubated with the same DMSO concentration as that present in the highest working concentration.
Total Collagen assay was performed according to the manufacturer's protocol.
Total Protein assay, for use with the Total Collagen assay, was performed according to the manufacturer's protocol. Protein levels were used to correct for differences in cell contents between samples.
Significance of differences between the groups was calculated either parametrically or non-parametrically, using the computer program SPSS. For nonparametric calculations, a Kruskal-Wallis test for several independent samples was used, followed by a Mann-Whitney U-test for independent samples. For parametric calculations, a One-way ANOVA for multiple comparisons was used, followed by Dunnett or Bonferroni's correction.

[3] = system: human precision cut liver slices; assay: Precision cut liver slice (PCLS) in vitro human NASH model, soluble outputs (collagen 1α1, IL-6, TIMP-1 ELISA)
Experimental: PCLSs were prepared from resected liver tissue and rested for 24 hours to allow the post-slicing stress period to elapse before experiments began. […] PCLS culture media, including lipids and compounds, was refreshed at 24 hrs intervals. […] PCLSs were prepared from an n=1 individual human liver. The human livers are normal margins of near-to-normal human liver obtained during a surgical resection. Tissue culture supernatant (n=3 or n=4 per group) were collected every 24 hrs and snap frozen for quantification of the soluble outputs described below. At harvest, n=2 PCLSs were harvested for a triglyceride assay, n=2 PCLSs were harvested for frozen sections (Oil Red O staining), n=2 PCLSs were formalin-fixed, paraffin embedded (FFPE) for immunohistochemistry, and n=2 PCLSs were snap frozen for RNA isolation (Table 4, Groups 1˜4 only).

[4] = system: 3D InSight Human Liver Microtissues; assay: 3D InSight Human Liver Microtissues, DNL condition, intratissue triglyceride content (7 days)
Experimental: After a 7 day treatment with dosings at days 0, 2 and 5, intratissue lipid accumulation was measured using Triglyceride-Glo™ Assay (Promega). In addition, metabolic activity of the treated Liver Microtissues (MTs) and cytotoxicity were assessed by measurement of ATP content at day 7 of treatment (CellTiter-Glo® 2.0 Cell Viability Assay, Promega) and LDH release between days 0-2, days 2-5 and days 5-7 (LDH-Glo™ Cytotoxicity Assay, Promega), respectively. Leftover supernatant collected on treatment days 2, 5 and 7 were stored frozen for further analysis. […] Experimental readout measurements comprised collection and freezing of supernatants for LDH measurement on days 2, 5 and 7. Measurement of LDH released into supernatant was analyzed using an LDH-Glo™ Cytotoxicity Assay (Promega). Measurement of ATP content in single MTs after 7 days of treatment with was analyzed using a Cell Titer Glo™ 2.0 Cell Viability Assay (Promega). Measurement of intratissue triglyceride (TG) content after 7 days of treatment was analyzed using a Triglyceride-Glo™ Assay (Promega). […] Total TG content in MTs at day 7 of treatment was measured with Triglyceride-Glo™ Assay (Promega), according to InSphero AG protocol. The amount of glycerol/MT [pmol/MT] was calculated using linear regression to a standard curve. […]

Q: `Cc1nc(-c2cc(C(=O)N3CCC(c4ccc(C#N)cc4)CC3)c(C)cc2C2CCC2)n[nH]1` [Compound 001-152, 4-(1-(4-Cyclobutyl-2-methyl-5-(5-methyl-4H-1,2,4-triazol-3-yl)benzoyl)piperidin-4-yl)benzonitrile] was tested. Which “intratissue Triglyceride content (NASH-induced)” value [1] did it give?
A: reduced cellular triglycerides

Q: What about the collagen production [2] of the same compound?
A: inhibits collagen production directly; also recorded: inhibits as effectively as positive control Alk5 inhibitor

Q: What about the “fibrosis marker collagen 1α1 in culture supernatant” value [3] of the same compound?
A: dose and time-dependent decrease

Q: What about the “intratissue Triglyceride content” value [4] of the same compound?
A: reduces cellular triglycerides
